Measurements published in US20160176919A1, “CELL SPECIFIC LABELING OF NEWLY SYNTHESIZED PROTEINS” (OREGON HEALTH & SCIENCE UNIVERSITY, priority 2014, published 2016).

Legend:
[1] = tested on: HEK293T cells transfected with PGA-IRES-GFP or control plasmid; assay: Deblocking of PhAc-OP-puro by PGA in HEK 293T cells transfected with PGA-IRES-GFP or control plasmid (biotin azide click, Streptavidin-HRP dot blot/Western blot); assay type: cell-based, human
Protocol: FIG. 4A is a dot blot and a bar graph showing HEK293T cells transfected with either a PGA IRES GFP or a control plasmid (as indicated) using calcium phosphate transfection. Twenty-four hours after transfection, cells were treated with 5 or 50 μM of DMSO (negative control), OP-puro, or PhAc-OP-puro as indicated for 30 minutes. Cells were harvested in PBS+1% SDS. Lysates were diluted 10× and incubated with biotin azide under click reaction conditions for one hour. Lysates were spotted onto nitrocellulose and biotinylated proteins detected with Streptavidin-HRP (top panel). Dot intensity was quantified using Image) and graphed (bottom panel).
FIG. 4B is a set of two images of gels showing proteins from three of the samples described in FIG. 4A resolved by 4-12% gradient SDS-PAGE and detected by Western blot with Streptavidin-HRP (left panel) or Ponceau S staining (right panel) Bands marked with an asterisk are endogenous cellular biotinylated proteins.
In E. coli, PGA is expressed as a precursor protein containing a signal sequence that targets it to the bacterial periplasm, where it is processed and activated (Kasche et al, Biochem Biophys Acta 1433, 76 (1999); incorporated by reference herein). Previous studies, however, have shown that by removing the signal sequence, PGA can be expressed in the cytoplasm of the methylotrophic yeast, Pichia pastoris (Maresova H et al, BMC Biotechnol 10, 7 (2010); incorporated by reference herein). Importantly, this cytoplasmic variant of PGA was as active as wild type (WT) PGA expressed in bacteria (Maresova H et al, 2010 supra). However, to date, no one had shown whether or not PGA could be expressed in mammalian cells or any cells derived from a multicellular organism. A construct (PGA-IRES-GFP) was the designed, the construct comprising a variant of PGA lacking the signal sequence described above, and an IRES-GFP for co-cistronic expression of GFP to identify transfected cells.
The incorporation of OP-puro into newly synthesized proteins was detected using click chemistry with biotin azide. […] (FIG. 4A).

[2] = tested on: HEK 293T cells transfected with PGA-IRES-GFP; assay: Cell-specific labeling of newly synthesized proteins in single HEK 293T cells (click chemistry with Alexa Fluor-568 azide, fluorescence microscopy); assay type: cell-based, human; conditions: 5 μM, 30 min
Protocol: FIG. 5A is a set of 12 images of HEK 293T cells transfected with PGA-IRES-GFP or controls as indicated using calcium phosphate transfection. In two of the conditions, PGA-IRES-GFP transfected cells were mixed with nontransfected cells such that the total population of transfected cells was 5%. At a timepoint 24 hours post transfection, cells were treated with either a DMSO control or 5 μM PhAc-OP-puro for 30 minutes as indicated. Cells were then fixed with methanol and nascent protein synthesis detected by click chemistry with Alexa Fluor-568 azide. After click chemistry, cells were labeled with an antibody specific for GFP. Total cells were detected by DAPI.
In cells treated with PhAc-OP-puro (5 μM, 30 min), labeling of newly synthesized proteins (OP-puro-tagged peptides) is detected in PGA-expressing cells (identified by GFP) (FIG. 5A). The amount of labeling appeared to correlate with the expression levels of PGA as determined by comparing the fluorescence intensity of the OP-puro tagged peptides to the fluorescence intensity of GFP.

[3] = Stability of PhAc-OP-puro in mouse plasma by LCMS; assay type: in vitro ADME; conditions: in vitro, for up to 40 min
Protocol: FIG. 6 is a plot of the results of incubating PhAc-OP-puro in mouse plasma for the indicated period of time. Stability of PhAc-OP-puro was monitored by liquid chromatography mass spectrometry.
As shown above, PhAc-OP-puro is stable in cell culture and is not converted to OP-puro in wild type cells. To use PhAc-OP-puro in an animal system such as mice, the in vitro stability of PhAc-OP-puro in plasma should be determined. Plasma typically contains high esterase activity that could result in cleavage of the carbamate linkage in PhAc-OP-puro. Cleavage of PhAc-OP-puro at the carbamate linkage would generate OP-puro, and therefore would not allow use of the disclosed method in intact mice. While there are several examples of drugs containing carbamates (Chaturvedi D, Tetrahedron 68, 15 (2012); incorporated by reference herein), it is unpredictable whether or not a particular carbamate is resistant to esterases in plasma.
The potential esterase-dependent metabolism of PhAc-OP-puro in mouse plasma was assessed by liquid chromatography mass spectrometry (LCMS). PhAc-OP-puro was determined to be stable in mouse plasma for up to 40 min (FIG. 6).

Hela cells = assay: Identifying the nascent proteome in Hela cells using OP-puro (click chemistry with biotin azide, NeutrAvidin affinity purification, Western blot/silver stain, MS/MS); assay type: cell-based, human
Protocol: FIG. 3 is a set of two images of gels that show selective enrichment of newly synthesized proteins in Hela cells treated with OP-puro relative to those treated with puromycin. Hela cells were treated with either 50 μM OP-puro or puro (as indicated) for one hour. Cells were then harvested in PBS+1% SDS (sodium dodecyl sulfate) and lysed. Lysates were diluted in 0.1% SDS and incubated with biotin azide using a click reaction for one hour. Biotinylated proteins were affinity purified using NeutrAvidin agarose beads. Eluted proteins were resolved using a 4-12% gradient SDS-PAGE gel and detected by either Western blot with streptavidin-HRP (left gel) or by silver stain (right gel). The lanes reflect input (I), supernatant (S), or pull-down (P) as indicated.
OP-puro can identify newly synthesized proteins in a defined timeframe in mammalian cells grown in culture. Newly synthesized proteins were identified in Hela cells using OP-puro, followed by click chemistry, affinity purification, and MS/MS analysis. OP-puro was synthesized according to Liu et al, 2012 supra.
To prepare samples for MS/MS analysis, the captured biotinylated proteins from the OP-puro and puro (used as a background control) treated cells were alkylated and digested on the agarose beads using trypsin. The peptides were analyzed using a capillary HPLC system coupled online with an LTQ orbitrap mass spectrometer. […] These peptides identified 530 different human proteins, which represents ˜5% of the total Hela proteome (Nagaraj et al 2011 supra).

[4] = OP-puro treated Hela cells, puro as background control

SMILES: C#CCOc1ccc(C[C@H](NC(=O)OCc2ccc(NC(=O)Cc3ccccc3)cc2)C(=O)NC2C(CO)OC(n3cnc4c(N(C)C)ncnc43)C2O)cc1 (stereo partly shown) [PhAc-OP-puro]
- incorporation into newly synthesized proteins (biotin signal) ([1]; HEK 293T cells transfected with PGA-IRES-GFP, 5 μM, 30 min): prominent biotin signal
- time for complete conversion to OP-puro ([1]; PGA-IRES-GFP transfected HEK 293T cells, 5 μM): ≤ 30 min
- induction of the unfolded protein response ([1]; PGA-IRES-GFP transfected HEK 293T cells, 5 μM, 30 min): no observed induction
- signal intensity relative to OP-puro control ([1]; PGA-IRES-GFP transfected HEK 293T cells, 5 μM, 30 min, versus control transfected cells with OP-puro 5 μM): the same as that of control transfected cells treated with OP-puro
- activity (labeling of proteins) in the absence of PGA ([1]; control transfected HEK 293T cells, up to 50 μM): completely inert
- labeling of newly synthesized proteins (OP-puro-tagged peptides) in PGA-expressing cells ([2]; PGA-expressing cells identified by GFP): detected
- labeling of newly synthesized proteins in cells not expressing PGA ([2]; cells not expressing PGA): No labeling was detected
- stability in mouse plasma [3]: stable

SMILES: COc1ccc(C[C@H](N)C(=O)N[C@H]2[C@@H](O)[C@H](n3cnc4c(N(C)C)ncnc43)O[C@@H]2CO)cc1 [puro, puromycin]
- silver stain of NeutrAvidin eluates (Hela cells; Hela cells, 50 μM, one hour): no detectable staining

SMILES: C#CCOc1ccc(C[C@H](N)C(=O)N[C@H]2[C@@H](O)[C@H](n3cnc4c(N(C)C)ncnc43)O[C@@H]2CO)cc1 [OP-puro, O-propargyl puromycin]
- biotinylated proteins in NeutrAvidin eluates (Western blot with streptavidin-HRP) (Hela cells; Hela cells, 50 μM, one hour): presence of biotinylated proteins
- fraction of the total Hela proteome represented by identified proteins (Hela cells; OP-puro treated Hela cells): ~5%
- different human proteins identified (Hela cells; [4]): 530
- peptides with unique amino acid sequences identified by MS/MS (Hela cells; [4]): 1,600
